Experimental data as given in US7887822B2, “Peptides for stimulating an immune response against melanoma” (Health Research, Inc., priority 2005, dated 2011).
Where no end group is shown, it is not given here.

Experiments:
mAb 763.74 = assay: Inhibition by peptides of binding of biotinylated mAb 763.74 to HMW-MAA-bearing Colo38 melanoma cells; settings: for Inhibition of binding of mAb 763.74 to HMW-MAA-bearing melanoma cells: Colo38 cells, escalating peptide concentrations, FIG. 3; for IC50 for inhibition of mAb 763.74 binding: biotinylated mAb 763.74 incubated with peptide at 4° C. overnight, then Colo38 cells 1 h at 4° C., read-out: Dissociation constant (Kd), molar concentration of the peptide required to cause a 50% inhibition of binding of biotinylated mAb 763.74 to Colo38 cells
Protocol: FIG. 3 is a graphical depiction of dose-dependent inhibition by anti-id mAb MK2-23H3-derived peptide PMK2-23H3 of binding of mAb 763.74 to HMW-MAA-bearing Colo38 melanoma cells. Peptides PHMW.D2.7 (HMW-MAA-derived), PMK2-23H3 (anti-id mAb MK2-23H3-derived), and an irrelevant control peptide Pb2m (β2-microglobulin-derived) at increasing concentrations were incubated with biotinylated mAb 763.74 (0.5 μg/ml) and assayed as described in Example 2. Results of one of three representative experiments are shown.
PMK2-23H3, PMK2-23L1, and PHMW-MAA.D2.7 were synthesized by N.C. Wang, Hospital for Sick Children, Toronto, ON, Canada. A synthetic peptide derived from β2-microglobulin (Pb2m, KNGERIEKVEHS SEQ ID NO:4), used as a negative control, was purchased from University of Georgia Molecular Genetics Instrumentation Facility (Athens, Ga.). mAb 763.74 was purified from ascitic fluid by sequential ammonium sulphate and caprylic acid precipitation (Temponi, et al. (1989) Hybridoma. 8, 85-95). The purity and activity of mAb preparations were assessed by SDS-PAGE and by testing with the corresponding antigen in a binding assay, respectively. Biotinylation was performed using NHS-LC-biotin (Pierce, Rockford, Ill.) according to the manufacturer's instructions.)
Escalating concentrations of peptides were incubated with biotinylated mAb 763.74 ([…]) at 4° C. overnight in U-bottom 96-well plates. The mixture was then incubated with HMW-MAA-bearing melanoma cells Colo38 (10^5/well) for 1 h at 4° C. After three washes with 1% bovine serum albumin in phosphate buffered saline, an optimal amount of horseradish peroxidase-conjugated streptavidin was added. Reactions were then developed and visualized with the TMB substrate system (KPL, Gaithersburg, Md.). Reactions were reported as optical density (O.D.) measured with an ELISA reader. Percent inhibition was calculated by the formula: 100%×(O.D.irrelevant peptide−O.D.test peptide)/O.D.irrelevant peptide. Dissociation constant (Kd) was calculated as the molar concentration of the peptide required to cause a 50% inhibition of binding of biotinylated mAb 763.74 to HMW-MAA-bearing melanoma cells Colo38 (Temponi, et al. (1992) Cancer Res. 52, 2497-2503).

[1] = test system: peptides PMK2-23H3, PHMW.D2.7 and anti-id mAb MK2-23; assay: Immunogenicity in BALB/c mice: reactivity of sera in peptide binding ELISA; format: in vivo; settings: peptide conjugated to KLH with Freund adjuvant; for Reactivity of sera from immunized mice with HMW-MAA-derived peptide PHMW.D2.7 / Reactivity of sera from immunized mice with peptide PMK2-23H3: s.c. day 0, 21, 42, sera day 7 and 28, ELISA
Protocol: (§1) FIGS. 4A and 4B are graphical depictions of the immunogenicity of peptide PMK2-23H3 in BALB/c mice. Sera harvested before immunization (circle) and on days 7 (square) and 28 (triangle) after immunization from BALB/c mice immunized with anti-id mAb-derived peptide PMK2-23H3 were tested for their reactivity in ELISA with the immunizing peptide (closed symbols, left panel of FIG. 4A) and with HMW-MAA-derived peptide PHMW.D2.7 (open symbols, right panel of FIG. 4A). Sera harvested before immunization (circles) and on day 28 (triangles) were tested in ELISA (left panel in FIG. 4B) with HMW-MAA-transfected M14#5 cells (closed symbols) and with their mock-transfected counterparts (open symbols, left panel in FIG. 4B). Sera harvested on day 28 were tested by FACS analysis (right panel in FIG. 4B, open profiles) with HMW-MAA-transfected M14#5 cells (M14#5/HMW) and with their mock-transfected counterparts (M14#5/neo). Preimmune sera (filled profile) were used as controls.
(§2) Immunizations were given subcutaneously to 8-week-old female BALB/c mice (obtained from Taconic Farms, Germantown, N.Y.) (5 per group) on day 0, 21, and 42. Sera were harvested before immunization and on day 7 and 28. They were tested for reactivity with the immunizing peptide coated on 96-well plates (Temponi, et al. (1989) Hybridoma. 8, 85-95) and with HMW-MAA-bearing melanoma cells in ELISA and fluorescence-activated cell sorting (FACS) analysis using conventional techniques as previously described (Chen, et al. (1991) J. Immunol. 147, 1082-1090).

[2] = test system: HMW-MAA-transfected M14 melanoma cells; assay: Immunogenicity in BALB/c mice: reactivity of sera with HMW-MAA-transfected and mock-transfected M14 melanoma cells in ELISA and FACS; format: in vivo; settings: sera day 28; ELISA and FACS analysis
Protocol: as §1, with “Sera harvested on day 28 were tested by FACS analysis (right panel in FIG. 4B, open profiles) with HMW-MAA-transfected M14#5 cells (M14#5/HMW) and with their mock-transfected counterparts (M14#5/neo). Preimmune sera (filled profile) were used as controls.” left out
as §2, with “Sera were harvested before immunization and on day 7 and 28.” left out

[3] = Solubility of peptide, as noted for the peptide binding assays; format: physicochemical
Protocol: Peptide PMK2-23H3, which was based on the H3 loop of anti-id mAb MK2-23 encompassing the HMW-MAA-homologous amino acid sequence (FIG. 1) was analyzed for reactivity with the HMW-MAA-specific idiotypic mAb 763.74. […] The peptide SVEYYGSSLMQ (designated as PMK2-23L1), which was derived from the L1 loop of anti-id mAb MK2-23 encompassing the described HMW-MAA-homologous a.a. sequence, was also synthesized.

Row | Sequence | Inhibition of binding of mAb 763.74 to HMW-MAA-bearing melanoma cells (mAb 763.74) | Reactivity of sera from immunized mice with HMW-MAA-derived peptide PHMW.D2.7 [1] | Reactivity of sera from immunized mice with peptide PMK2-23H3 [1] | IC50 for inhibition of mAb 763.74 binding (mAb 763.74) | Reactivity of sera from immunized mice with anti-id mAb MK2-23 ([1]; s.c., peptide binding assay) | Reactivity of sera from immunized mice with HMW-MAA-transfected M14 melanoma cells (M14.HMW-MAA) [2] | Reactivity of sera from immunized mice with mock-transfected M14 cells (M14.neo) [2] | Solubility [3]
1 | KNGERIEKVEHS (human; Beta 2-microglobulin peptide) [Pb2m, reference compound] | no detectable effect | no detectable reactivity | no detectable reactivity | – | – | – | – | –
2 | ARSNYVGYHVRWYFD [PMK2-23H3, identical to a portion of the H3 loop of anti-id mAb MK2-23] | inhibits the binding | reacted | reacted | 871 nM | reacted | reacted | did not react | –
3 | SVEYYGSSLMQ [PMK2-23L1, SVEYYGSSLMQ] | – | – | – | – | – | – | – | low solubility
4 | IRSGDEVHYHVTAGPRW [PHMW-MAA.D2.7, IRSGDEVHYHV TAGPRW, identical to a region of HMW-MAA with partial homology to the H3 loop of MK2-23] | – | – | – | 900 nM | – | – | – | –
